Assay results reported in patent publication US6686467B2, “Amide derivatives for the treatment of diseases mediated by cytokines” (Zeneca Limited, priority 1997, dated 2004).
pIC50: −log10 of the molar value.

What was measured:
[1] = test system: TNFα production by human peripheral blood mononuclear cells; experiment: PBMC test: TNFα production after lipopolysaccharide stimulation; assay type: cell-based; details: LPS-stimulated TNFα production
Protocol: The ability of compounds of this invention to inhibit TNFα production was assessed by using human peripheral blood mononuclear cells which synthesise and secrete TNFα when stimulated with lipopolysaccharide.
Peripheral blood mononuclear cells (PBMC) were isolated from heparinised (10 units/ml heparin) human blood by density centrifugation (Lymphoprep™; Nycomed). Mononuclear cells were resuspended in culture medium [RPMI 1640 medium (Gibco) supplemented with 50 units/ml penicillin, 50 μg/ml streptomycin, 2 mM glutamine and 1% heat-inactivated human AB serum (Sigma H-1513)]. Compounds were solubilised in DMSO at a concentration of 50 mM, diluted 1:100 in culture medium and subsequently serial dilutions were made in culture medium containing 1% DMSO. PBMCs (2.4×10^5 cells in 160 μl culture medium) were incubated with 20 μl of varying concentrations of test compound (triplicate cultures) or 20 μl culture medium containing 1% DMSO (control wells) for 30 minutes at 37° C. in a humidified (5%CO2/95% air) incubator (Falcon 3072; 96 well flat-bottom tissue culture plates). 20 μl lipopolysaccharide [LPS E.Coli 0111:B4 (Sigma L-4130), final concentration 10 μg/ml] solubilised in culture medium was added to appropriate 30 wells. 20 μl culture medium was added to “medium alone” control wells. Six “LPS alone” and four “medium alone” controls were included on each 96 well plate. Varying concentrations of a known TNFα inhibitor were included in each test, i.e. an inhibitor of the PDE Type IV enzyme (for example see Semmler, J. Wachtel. H and Endres. S., Int. J. Immunopharmac. (1993), 15(3), 409-413) or an inhibitor of proTNFα convertase (for example, see McGeehan, G. M. et al. Nature (1994) 370, 558-561). Plates were incubated for 7 hours at 37° C. (humidified incubator) after which 100 μl of the supernatant was removed from each well and stored at −70° C. (96 well round-bottom plates; Corning 25850). TNFα levels were determined in each sample using a human TNFα ELISA (see WO92/10190 and Current Protocols in Molecular Biology, vol 2 by Frederick M. Ausbel et al., John Wiley and Sons Inc.). [formula]

[2] = biological target: T1, p38α (Homo sapiens, UniProt Q16539); experiment: In vitro enzyme assay, p38α isoform; assay type: biochemical; details: read-out: IC50 against p38α
T1 construct: c-myc (N); 6His (N); made in house; host or cells: E. coli (PET vectors)
T1 sequence (Q16539 whole entry, canonical isoform): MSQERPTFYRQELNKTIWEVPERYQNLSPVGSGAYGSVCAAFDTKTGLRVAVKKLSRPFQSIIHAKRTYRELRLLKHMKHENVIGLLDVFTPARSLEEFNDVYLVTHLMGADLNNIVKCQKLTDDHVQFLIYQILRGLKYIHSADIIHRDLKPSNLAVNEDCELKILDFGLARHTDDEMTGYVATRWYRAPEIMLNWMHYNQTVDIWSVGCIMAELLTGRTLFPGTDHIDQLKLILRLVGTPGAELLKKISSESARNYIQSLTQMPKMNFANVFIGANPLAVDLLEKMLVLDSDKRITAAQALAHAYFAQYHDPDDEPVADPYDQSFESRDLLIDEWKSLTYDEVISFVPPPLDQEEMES
Protocol: The ability of compounds of the invention to inhibit the enzyme p38 kinase was assessed. Activity of particular test compounds against each of the p38α and p38β isoforms of the enzyme was determined.
Human recombinant MKK6 (GenBank Accesion Number G1209672) was isolated from Image clone 45578 (Genomics, 1996, 33, 151) and utilised to produce protein in the form of a GST fusion protein in a pGEX vector using analogous procedures to those disclosed by J. Han et al., Journal of Biological Chemistry, 1996, 271, 2886-2891, p38α (GenBank Accession Number G529039) and p38β (GenBank Accession Number G1469305) were isolated by PCR amplification of human lymphoblastoid cDNA (GenBank Accession Number GM1416) and human foetal brain cDNA [synthesised from mRNA (Clontech, catalogue no. 6525-1) using a Gibco superscript cDNA synthesis kit] respectively using oligonucleotides designed for the 5′ and 3′ ends of the human p38α and p38β genes using analogous procedures to those described by J. Han et al., Biochimica et Biophysica Acta, 1995, 1265, 224-227 and Y. Jiang et al. Journal of Biological Chemistry 1996, 271, 17920-17926.
Both p38 protein isoforms were expressed in e coli in PET vectors. Human recombinant p38α and p38β isoforms were produced as 5′ c-myc, 6His tagged proteins. Both MKK6 and the p38 proteins were purified using standard protocols: the GST MKK6 was purified using a glutathione sepharose column and the p38 proteins were purified using nickel chelate columns.
The p38 enzymes were activated prior to use by incubation with MKK6 for 3 hours at 30° C. The unactivated coli-expressed MKK6 retained sufficient activity to fully activate both isoforms of p38. The activation incubate comprised p38α (10 μl of 10 mg/ml) or p38β (10 μl of 5 mg/ml) together with MKK6 (1 μl of 1 mg/ml), ‘Kinase buffer’ [100 μl; pH 7.4 buffer comprising Tris (50 mM), EGTA (0.1 mM), sodium orthovanadate (0.1 mM) and β-mercaptoethanol (0.1%)] and MgATP (30 μl of 50 mM Mg(OCOCH3)2 and 0.5 mM ATP). This produced enough activated p38 enzyme for 3 Microtiter plates.
Test compounds were solubilised in DMSO and 10 μl of a 1:10 diluted sample in ‘Kinase Buffer’ was added to a well in a Microtiter plate. For single dose testing, the compounds were tested at 10 μM. ‘Kinase Assay Mix’ [30 μl; comprising Myelin Basic Protein (Gibco BRL cat. no. 1322B-010; 1 ml of a 3.33 mg/ml solution in water), activated p38 enzyme (50 μl) and ‘Kinase Buffer’ (2 ml)] was then added followed by ‘Labelled ATP’ [10 μl; comprising 50 μM ATP, 0.1 μCi ^33P ATP (Amersham International cat. no. BF1000) and 50 mM Mg(OCOCH3)2]. The plates were incubated at room temperature with gentle agitation. Plates containing p38α were incubated for 90 min and plates containing p38β were incubated for 45 min. Incubation was stopped by the addition of 50 μl of 20% trichloroacetic acid (TCA). The precipitated protein was phosphorylated by p38 kinase and test compounds were assessed for their ability to inhibit this phosphorylation. The plates were filtered using a Canberra Packard Unifilter and washed with 2% TCA, dried overnight and counted on a Top Count scintillation counter.
(§1) Test compounds were tested initially at a single dose and active compounds were retested to allow IC50 values to be determined.

[3] = test system: p38 kinase; experiment: In vitro enzyme assay, p38 kinase (isoform not specified, or p38α and/or p38β); assay type: biochemical, human; details: result in words
Protocol: The ability of compounds of the invention to inhibit the enzyme p38 kinase was assessed. Activity of particular test compounds against each of the p38α and p38β isoforms of the enzyme was determined. […]
Test compounds were solubilised in DMSO and 10 μl of a 1:10 diluted sample in ‘Kinase Buffer’ was added to a well in a Microtiter plate. […] The precipitated protein was phosphorylated by p38 kinase and test compounds were assessed for their ability to inhibit this phosphorylation. The plates were filtered using a Canberra Packard Unifilter and washed with 2% TCA, dried overnight and counted on a Top Count scintillation counter.
as §1

| melting point | pIC50 [1] | pIC50 [2] | p38 kinase inhibitory activity [3] | Compound |
| --- | --- | --- | --- | --- |
| 136 to 138 °C | – | – | – | COc1ccc(C(=O)Nc2cc(NC(=O)c3cccc(Br)c3)ccc2C)cc1OC [Example 6, N-[5-(3-bromobenzamido)-2-methylphenyl]-3,4-dimethoxybenzamide] |
| – | ~5.82 | ~7.40 | – | Cc1ccc(NC(=O)c2cccc(N3CCOCC3)c2)cc1NC(=O)c1cccc(N2CCOCC2)c1 [Example 9, Compound No. 50, N-[2-methyl-5-(3-morpholinobenzamido)phenyl]-3-morpholinobenzamide] |
| – | – | – | possess p38 kinase inhibitory activity | Cc1ccc(NC(=O)c2cccc(N(C)C)c2)cc1NC(=O)c1ccc(O)cc1 [N-[5-(3-Dimethylaminobenzamido)-2-methylphenyl]-4-hydroxybenzamide] |
| 182 to 183 °C | – | – | – | COc1ccc(C(=O)Nc2cc(NC(=O)c3cccc(O)c3)ccc2C)cc1OC [Example 11, N-[5-(3-hydroxybenzamido)-2-methylphenyl]-3,4-dimethoxybenzamide] |
| – | – | ~5.22 | – | Cc1ccc(NC(=O)CCC2CCCC2)cc1NC(=O)c1ccc(O)cc1 [N-[5-(3-cyclopentylpropionamido)-2-methylphenyl]-4-hydroxybenzamide] |
| – | ~4.66 | ~5.77 | – | Cc1ccc(NC(=O)c2c(F)cccc2Cl)cc1NC(=O)c1ccc(O)cc1 [Example 9, Compound No. 12] |
| 159 to 160 °C | – | – | – | Cc1ccc(NC(=O)CCCC2CCCCC2)cc1NC(=O)c1ccc(O)cc1 [N-[5-(4-Cyclohexylbutyrylamino)-2-methylphenyl]-4-hydroxybenzamide] |
| – | ~5.15 | ~6.70 | – | COc1ccc(C(=O)Nc2cc(NC(=O)c3cccc(N(C)C)c3)ccc2C)cc1OC [Example 9, Compound No. 7, N-[5-(3-dimethylaminobenzamido)-2-methylphenyl]-3,4-dimethoxybenzamide] |
| 187 to 188 °C | – | – | – | COc1ccc(C(=O)Nc2cc(NC(=O)c3cccc(NC(C)=O)c3)ccc2C)cc1OC [Example 33, N-[5-(3-acetamidobenzamido)-2-methylphenyl]-3,4-dimethoxybenzamide] |
| – | ~5.15 | ~6.40 | – | Cc1ccc(NC(=O)CCC2CCCCC2)cc1NC(=O)c1ccc(O)cc1 [N-[5-(3-cyclohexylpropionamido)-2-methylphenyl]-4-hydroxybenzamide] |
| 297 to 299 °C | – | – | – | Cc1ccc(NC(=O)c2ccc(C#N)cc2)cc1NC(=O)c1ccc(O)cc1 [Example 4, N-[5-(4-Cyanobenzamido)-2-methylphenyl]-4-hydroxybenzamide] |
| 179 to 180 °C | ~5.15 | ~6.15 | – | COc1ccc(C(=O)Nc2cc(NC(=O)c3cccc(N)c3)ccc2C)cc1OC [Example 13, N-[5-(3-aminobenzamido)-2-methylphenyl]-3,4-dimethoxybenzamide] |
| – | ~5.52 | ~6.15 | – | Cc1ccc(NC(=O)c2ccccc2)cc1NC(=O)c1cccc(CN2CCN(C)CC2)c1 [Example 9, Compound No. 51, N-(5-benzamido-2-methylphenyl)-3-(4-methylpiperazin-1-yl)methylbenzamide] |
| 258 to 259 °C | – | – | – | COc1ccc(C(=O)Nc2cc(NC(=O)c3ccc(O)cc3)ccc2C)cc1OC [Example 10, N-[5-(4-hydroxybenzamido)-2-methylphenyl]-3,4-dimethoxybenzamide] |
| 234 to 238 °C | – | – | – | Cc1ccc(NC(=O)c2cccc(N(C)C)c2)cc1NC(=O)c1ccccc1O [Example 30, N-[5-(3-dimethylaminobenzamido)-2-methylphenyl]-2-hydroxybenzamide] |
